Test results: ChEMBL document CHEMBL3352582, “Protective effects of aloe-emodin on scopolamine-induced memory impairment in mice and H₂O₂-induced cytotoxicity in PC12 cells” (Bioorg Med Chem Lett, 2014)
Active and inactive are the calls of the source. No cut-off for these calls is given here.

Key:
Mus musculus [1] = assay: Neuroprotective effect in Kunming mouse assessed as increase in scopolamine-induced reduction in GPx level in hippocampus at 0.1 mg/kg, po qd administered for 15 days followed by 1 hr prior to trial session for 6 days relative to control; type: functional, organism-based; parameters: dose 0.1 mg/kg
Mus musculus [2] = assay: Neuroprotective effect in Kunming mouse assessed as reduction in scopolamine-induced escape latency at 0.1 mg/kg, po qd administered for 15 days followed by 1 hr prior to trial session for 6 days by Morris water maze test; type: functional, organism-based; parameters: dose 0.1 mg/kg
Mus musculus [3] = assay: Neuroprotective effect in Kunming mouse assessed as increase in scopolamine-induced reduction in time spent in target quadrant at 0.1 mg/kg, po qd administered for 15 days followed by 1 hr prior to trial session for 6 days measured at day 5 by Morris water maze test relative to sham control; type: functional, organism-based; parameters: dose 0.1 mg/kg
Mus musculus [4] = assay: Neuroprotective effect in Kunming mouse assessed as reversal of scopolamine-induced reduction in ACh level in hippocampus at 0.1 mg/kg, po qd administered for 15 days followed by 1 hr prior to trial session for 6 days; type: functional, organism-based; parameters: dose 0.1 mg/kg
Mus musculus [5] = assay: Neuroprotective effect in Kunming mouse assessed as reversal of scopolamine-induced increase in AChE activity in hippocampus at 0.1 mg/kg, po qd administered for 15 days followed by 1 hr prior to trial session for 6 days; type: functional, organism-based; parameters: dose 0.1 mg/kg
Mus musculus [6] = assay: Neuroprotective effect in Kunming mouse assessed as increase in scopolamine-induced reduction in SOD level in hippocampus at 0.1 mg/kg, po qd administered for 15 days followed by 1 hr prior to trial session for 6 days relative to control; type: functional, organism-based; parameters: dose 0.1 mg/kg
Mus musculus [7] = assay: Neuroprotective effect in Kunming mouse assessed as reduction in scopolamine-induced increase in MDA level in hippocampus at 0.1 mg/kg, po qd administered for 15 days followed by 1 hr prior to trial session for 6 days relative to control; type: functional, organism-based; parameters: dose 0.1 mg/kg
Mus musculus [8] = assay: Neuroprotective effect in Kunming mouse assessed as increase in scopolamine-induced reduction in time spent in platform crossing at 0.1 mg/kg, po qd administered for 15 days followed by 1 hr prior to trial session for 6 days measured at day 5 by Morris water maze test relative to sham control; type: functional, organism-based; parameters: dose 0.1 mg/kg
Mus musculus [9] = assay: Neuroprotective effect in Kunming mouse assessed as reversal of scopolamine-induced increase in AChE activity in hippocampus at 100 mg/kg, po qd administered for 15 days followed by 1 hr prior to trial session for 6 days relative to sham control; type: functional, organism-based; parameters: dose 100 mg/kg
PC-12 [10] = assay: Inhibition of intracellular ROS generation in rat PC12 cells at 20 ug/ml incubated for 24 hrs prior to H2O2 challenge measured after 2 hrs by fluorescence assay relative to control; type: functional; details: values are per cent of control
Mus musculus [11] = assay: Neuroprotective effect in Kunming mouse assessed as increase in scopolamine-induced reduction in swim speed at 25 to 100 mg/kg, po qd administered for 15 days followed by 1 hr prior to trial session for 6 days measured at day 5 by Morris water maze test relative to sham control; type: functional, organism-based
Mus musculus [12] = assay: Neuroprotective effect in Kunming mouse assessed as reduction in scopolamine-induced escape latency at 100 mg/kg, po qd administered for 15 days followed by 1 hr prior to trial session for 6 days by Morris water maze test; type: functional, organism-based; parameters: dose 100 mg/kg
PC-12 [13] = assay: Inhibition of H2O2-induced NO production in rat PC12 cells at 10 ug/ml incubated for 24 hrs prior to H2O2 challenge measured after 2 hrs relative to control; type: functional
Mus musculus [14] = assay: Neuroprotective effect in Kunming mouse assessed as reduction in scopolamine-induced increase in MDA level in hippocampus at 25 to 100 mg/kg, po qd administered for 15 days followed by 1 hr prior to trial session for 6 days relative to control; type: functional, organism-based
Mus musculus [15] = assay: Neuroprotective effect in po dosed Kunming mouse assessed as increase in scopolamine-induced reduction in time spent in platform crossing administered qd for 15 days followed by 1 hr prior to trial session for 6 days by Morris water maze test; type: functional, organism-based
PC-12 [16] = assay: Inhibition of H2O2-induced NO production in rat PC12 cells at 20 ug/ml incubated for 24 hrs prior to H2O2 challenge measured after 2 hrs relative to control; type: functional
Mus musculus [17] = assay: Neuroprotective effect in Kunming mouse assessed as reversal of scopolamine-induced reduction in ACh level in hippocampus at 25 to 100 mg/kg, po qd administered for 15 days followed by 1 hr prior to trial session for 6 days; type: functional, organism-based
[18] = Cytoprotective effect against H2O2-induced cell death in rat PC12 cells at 10 ug/ml incubated for 24 hrs prior to H2O2 challenge measured after 2 hrs by MTT assay; type: functional, PC-12
Mus musculus [19] = assay: Neuroprotective effect in Kunming mouse assessed as increase in scopolamine-induced reduction in time spent in platform crossing at 50 to 100 mg/kg, po qd administered for 15 days followed by 1 hr prior to trial session for 6 days measured at day 5 by Morris water maze test relative to sham control; type: functional, organism-based
Mus musculus [20] = assay: Neuroprotective effect in Kunming mouse assessed as increase in scopolamine-induced reduction in GPx level in hippocampus at 25 to 100 mg/kg, po qd administered for 15 days followed by 1 hr prior to trial session for 6 days relative to control; type: functional, organism-based
Mus musculus [21] = assay: Neuroprotective effect in Kunming mouse assessed as reversal of scopolamine-induced effect on spatial memory performance at 100 mg/kg, po qd administered for 15 days followed by 1 hr prior to trial session for 6 days by Morris water maze test relative to sham control; type: functional, organism-based; parameters: dose 100 mg/kg
[22] = Cytoprotective effect against H2O2-induced cell death in rat PC12 cells at 20 ug/ml incubated for 24 hrs prior to H2O2 challenge measured after 2 hrs by MTT assay; type: functional, PC-12
Mus musculus [23] = assay: Neuroprotective effect in Kunming mouse assessed as increase in scopolamine-induced reduction in time spent in target quadrant at 50 to 100 mg/kg, po qd administered for 15 days followed by 1 hr prior to trial session for 6 days measured at day 5 by Morris water maze test relative to sham control; type: functional, organism-based
PC-12 [24] = assay: Inhibition of H2O2-induced NO production in rat PC12 cells incubated for 24 hrs prior to H2O2 challenge measured after 2 hrs relative to control; type: functional, cell-based
Mus musculus [25] = assay: Neuroprotective effect in po dosed Kunming mouse assessed as increase in scopolamine-induced reduction in time spent in target quadrant administered qd for 15 days followed by 1 hr prior to trial session for 6 days by Morris water maze test; type: functional, organism-based
Mus musculus [26] = assay: Neuroprotective effect in Kunming mouse assessed as increase in scopolamine-induced reduction in SOD level in hippocampus at 25 to 100 mg/kg, po qd administered for 15 days followed by 1 hr prior to trial session for 6 days relative to control; type: functional, organism-based
Mus musculus [27] = assay: Neuroprotective effect in Kunming mouse assessed as reversal of scopolamine-induced increase in AChE activity in hippocampus at 25 to 100 mg/kg, po qd administered for 15 days followed by 1 hr prior to trial session for 6 days; type: functional, organism-based
PC-12 [28] = assay: Inhibition of H2O2-induced LDH release in rat PC12 cells at 5 to 20 ug/ml incubated for 24 hrs prior to H2O2 challenge measured after 2 hrs relative to control; type: functional, cell-based
PC-12 [29] = assay: Inhibition of intracellular ROS generation in rat PC12 cells at 5 ug/ml incubated for 24 hrs prior to H2O2 challenge measured after 2 hrs by fluorescence assay relative to control; type: functional; details: values are per cent of control
Acetylcholinesterase [30] = target: T1, Acetylcholinesterase (Homo sapiens, UniProt P22303); details: 40 ug/ml
T1 sequence (P22303 whole entry): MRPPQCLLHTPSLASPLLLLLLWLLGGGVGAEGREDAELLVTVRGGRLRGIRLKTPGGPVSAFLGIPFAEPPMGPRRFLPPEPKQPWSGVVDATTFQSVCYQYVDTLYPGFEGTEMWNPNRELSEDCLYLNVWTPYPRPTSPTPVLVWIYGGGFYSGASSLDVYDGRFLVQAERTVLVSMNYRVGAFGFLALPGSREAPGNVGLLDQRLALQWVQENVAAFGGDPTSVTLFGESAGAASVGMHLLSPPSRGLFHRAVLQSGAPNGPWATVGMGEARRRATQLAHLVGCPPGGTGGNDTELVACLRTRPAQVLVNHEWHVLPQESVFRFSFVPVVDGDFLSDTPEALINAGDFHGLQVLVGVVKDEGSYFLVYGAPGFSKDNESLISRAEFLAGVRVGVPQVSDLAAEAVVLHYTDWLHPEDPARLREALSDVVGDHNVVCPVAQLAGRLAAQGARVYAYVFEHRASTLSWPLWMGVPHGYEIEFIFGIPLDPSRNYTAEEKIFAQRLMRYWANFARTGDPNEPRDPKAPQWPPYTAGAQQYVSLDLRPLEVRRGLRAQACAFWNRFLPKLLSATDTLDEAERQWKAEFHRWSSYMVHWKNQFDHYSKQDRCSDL
Description: Inhibition of AChE (unknown origin) at 40 ug/ml by Ellman's method

Mus musculus [31] = assay: Neuroprotective effect in Kunming mouse assessed as reduction in scopolamine-induced impairment in spatial learning and memory at 25 to 100 mg/kg, po qd administered for 15 days followed by 1 hr prior to trial session for 6 days measured at day 5 by Morris water maze test relative to sham control; type: functional, organism-based
[32] = Cytotoxicity against rat PC12 cells at 1 to 20 ug/ml by MTT assay; type: cell-based; details: pc-12
[33] = Cytoprotective effect against H2O2-induced cell death in rat PC12 cells at 5 ug/ml incubated for 24 hrs prior to H2O2 challenge measured after 2 hrs by MTT assay; type: functional, PC-12
PC-12 [34] = assay: Inhibition of intracellular ROS generation in rat PC12 cells at 10 ug/ml incubated for 24 hrs prior to H2O2 challenge measured after 2 hrs by fluorescence assay relative to control; type: functional; details: values are per cent of control
Mus musculus [35] = assay: Neuroprotective effect in po dosed Kunming mouse assessed as reduction in scopolamine-induced escape latency administered qd for 15 days followed by 1 hr prior to trial session for 6 days by Morris water maze test; type: functional, organism-based
PC-12 [36] = assay: Inhibition of H2O2-induced NO production in rat PC12 cells at 5 ug/ml incubated for 24 hrs prior to H2O2 challenge measured after 2 hrs relative to control; type: functional
Acetylcholinesterase [37] = target: T1, Acetylcholinesterase; assay: Inhibition of AChE (unknown origin) by Ellman's method
PC-12 [38] = assay: Cytoprotective effect against H2O2-induced cell death in rat PC12 cells at 20 uM incubated for 24 hrs prior to H2O2 challenge measured after 2 hrs by MTT assay; type: functional, cell-based
PC-12 [39] = assay: Inhibition of H2O2-induced LDH release in rat PC12 cells at 20 uM incubated for 24 hrs prior to H2O2 challenge measured after 2 hrs relative to control; type: functional, cell-based
PC-12 [40] = assay: Inhibition of H2O2-induced NO production in rat PC12 cells at 20 uM incubated for 24 hrs prior to H2O2 challenge measured after 2 hrs relative to control; type: functional, cell-based

## C/C=C1\[C@H]2C=C(C)C[C@]1(N)c1ccc(=O)[nH]c1C2
Mus musculus [1]
  Activity: Active
Mus musculus [2]
  Activity: Active
Mus musculus [3]
  Activity: Active
Mus musculus [4]
  Activity: Active
Mus musculus [5]
  Activity: Active
Mus musculus [6]
  Activity: Active
Mus musculus [7]
  Activity: Active
Mus musculus [8]
  Activity: Active

## O=C1c2cccc(O)c2C(=O)c2c(O)cc(CO)cc21 [ALOE-EMODIN]
Mus musculus [9]
  Activity: inactive
PC-12 [10]
  response, % of control at 20 µg/mL: 149%
Mus musculus [11]
  Activity: Active
Mus musculus [12]
  Activity: Active
PC-12 [13]
  inhibition at 10 µg/mL: 46.4%
Mus musculus [14]
  Activity: Active
Mus musculus [15]
  Activity: Dose-dependent effect
PC-12 [16]
  inhibition at 20 µg/mL: 64.3%
Mus musculus [17]
  Activity: Active
[18]
  Activity: 81%
Mus musculus [19]
  Activity: Active
Mus musculus [20]
  Activity: Active
Mus musculus [21]
  Activity: Active
[22]
  Activity: 88.7%
Mus musculus [23]
  Activity: Active
PC-12 [24]
  inhibition: Dose-dependent effect
Mus musculus [25]
  Activity: Dose-dependent effect
Mus musculus [26]
  Activity: Active
Mus musculus [27]
  Activity: Active
PC-12 [28]
  inhibition: Active
PC-12 [29]
  response, % of control at 5 µg/mL: 195%
Acetylcholinesterase [30]
  inhibition: 70%
Mus musculus [31]
  Activity: Active
[32]
  Activity: Non-toxic
[33]
  Activity: 72.9%
PC-12 [34]
  response, % of control at 10 µg/mL: 165%
Mus musculus [35]
  Activity: Dose-dependent effect
PC-12 [36]
  inhibition at 5 µg/mL: 27.8%
Acetylcholinesterase [37]
  IC50: 68 µM

## VITAMIN E
PC-12 [38]
  Activity: Active
PC-12 [39]
  inhibition: Active
PC-12 [40]
  inhibition: 76.2%
